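All cell lines were grown in 96-well plates and treated with compound for 48 hours. TGI denotes the concentration required for complete inhibition of growth.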
Assays:
Assay in all cases: growth of human tumour cells (NCI), 48 h
[1] = tested on: M14 melanoma
[2] = tested on: NCI-H23 lung
[3] = tested on: SW-620 colon
[4] = tested on: ACHN renal
[5] = tested on: COLO 205 colon
[6] = tested on: MOLT-4 leukemia
[7] = tested on: NCI-H522 lung
[8] = tested on: MCF7 breast
[9] = tested on: BT-549 breast
[10] = tested on: OVCAR-4 ovarian
[11] = tested on: SR leukemia
[12] = tested on: HCT-15 colon
[13] = tested on: HCC-2998 colon
[14] = tested on: 786-0 renal
[15] = tested on: CCRF-CEM leukemia
[16] = tested on: HOP-92 NSCLC
[17] = tested on: HS 578T breast
[18] = tested on: IGROV1 ovarian
[19] = tested on: SN12C renal
[20] = tested on: MALME-3M melanoma
[21] = tested on: NCI-H460 lung
[22] = tested on: MDA-N
[23] = tested on: EKVX NSCLC
[24] = tested on: SF-539 CNS
[25] = tested on: OVCAR-5 ovarian
[26] = tested on: HCT-116 colon
[27] = tested on: SF-268 CNS
[28] = tested on: SK-MEL-5 melanoma
[29] = tested on: SNB-19 CNS
[30] = tested on: HT29 colon
[31] = tested on: SK-OV-3 ovarian
[32] = tested on: SK-MEL-2 melanoma
[33] = tested on: MDA-MB-435
[34] = tested on: UO-31 renal
[35] = tested on: HL-60(TB) leukemia
[36] = tested on: NCI-H226 lung
[37] = tested on: UACC-62 melanoma
[38] = tested on: A549 NSCLC
[39] = tested on: OVCAR-8 ovarian
[40] = tested on: SK-MEL-28 melanoma
[41] = tested on: NCI/ADR-RES ovarian
[42] = tested on: RXF 393 renal
[43] = tested on: SF-295 CNS
[44] = tested on: KM12 colon
[45] = tested on: UACC-257 melanoma
[46] = tested on: K-562 leukemia
[47] = tested on: HOP-62 NSCLC
[48] = tested on: OVCAR-3 ovarian
[49] = tested on: PC-3 prostate
[50] = tested on: A498 renal
[51] = tested on: LOX IMVI melanoma
[52] = tested on: RPMI-8226 leukemia
[53] = tested on: CAKI-1 renal
[54] = tested on: SNB-75 CNS
[55] = tested on: DU-145 prostate
[56] = tested on: T-47D breast
[57] = tested on: MDA-MB-231 breast
[58] = tested on: TK-10 renal
[59] = tested on: U251 CNS

Structure (SMILES): CCOc1cc(NC(C)=O)ccc1C(=O)NN1C(=O)/C(=C/c2ccco2)N=C1c1ccccc1
- TGI [1]: > 100 µM
- TGI [2]: > 100 µM
- TGI [3]: > 100 µM
- TGI [4]: > 100 µM
- TGI [5]: > 100 µM
- TGI [6]: > 100 µM
- TGI [7]: > 100 µM
- TGI [8]: > 100 µM
- TGI [9]: > 100 µM
- TGI [10]: > 100 µM
- TGI [11]: > 100 µM
- TGI [12]: > 100 µM
- TGI [13]: > 100 µM
- TGI [14]: > 100 µM
- TGI [15]: > 100 µM
- TGI [16]: > 100 µM
- TGI [17]: > 100 µM
- TGI [18]: > 100 µM
- TGI [19]: > 100 µM
- TGI [20]: > 100 µM
- TGI [21]: > 100 µM
- TGI [22]: > 100 µM
- TGI [23]: > 100 µM
- TGI [24]: > 100 µM
- TGI [25]: > 100 µM
- TGI [26]: > 100 µM
- TGI [27]: > 100 µM
- TGI [28]: > 100 µM
- TGI [29]: > 100 µM
- TGI [30]: > 100 µM
- TGI [31]: > 100 µM
- TGI [32]: > 100 µM
- TGI [33]: > 100 µM
- TGI [34]: > 100 µM
- TGI [35]: > 100 µM
- TGI [36]: > 100 µM
- TGI [37]: > 100 µM
- TGI [38]: > 100 µM
- TGI [39]: > 100 µM
- TGI [40]: > 100 µM
- TGI [41]: > 100 µM
- TGI [42]: > 100 µM
- TGI [43]: > 100 µM
- TGI [44]: > 100 µM
- TGI [45]: > 100 µM
- TGI [46]: > 100 µM
- TGI [47]: > 100 µM
- TGI [48]: > 100 µM
- TGI [49]: > 100 µM
- TGI [50]: > 100 µM
- TGI [51]: > 100 µM
- TGI [52]: > 100 µM
- TGI [53]: > 100 µM
- TGI [54]: > 100 µM
- TGI [55]: > 100 µM
- TGI [56]: > 100 µM

Structure (SMILES): O=c1c2sc3nc(NCCN4CCCCC4)ncc3c2ncn1-c1ccccc1
- TGI [1]: 39.2 µM
- TGI [2]: > 100 µM
- TGI [3]: > 100 µM
- TGI [4]: > 100 µM
- TGI [5]: > 100 µM
- TGI [6]: > 100 µM
- TGI [7]: > 100 µM
- TGI [9]: > 100 µM
- TGI [10]: > 100 µM
- TGI [11]: > 100 µM
- TGI [12]: > 100 µM
- TGI [13]: > 100 µM
- TGI [14]: > 100 µM
- TGI [15]: > 100 µM
- TGI [57]: > 100 µM
- TGI [16]: 95.5 µM
- TGI [17]: > 100 µM
- TGI [18]: > 100 µM
- TGI [19]: > 100 µM
- TGI [20]: 58.4 µM
- TGI [21]: > 100 µM
- TGI [22]: > 100 µM
- TGI [25]: > 100 µM
- TGI [26]: > 100 µM
- TGI [27]: > 100 µM
- TGI [58]: > 100 µM
- TGI [28]: 36.3 µM
- TGI [29]: > 100 µM
- TGI [30]: > 100 µM
- TGI [31]: > 100 µM
- TGI [32]: > 100 µM
- TGI [33]: > 100 µM
- TGI [34]: 49.9 µM
- TGI [36]: > 100 µM
- TGI [37]: > 100 µM
- TGI [38]: > 100 µM
- TGI [39]: > 100 µM
- TGI [40]: > 100 µM
- TGI [41]: > 100 µM
- TGI [42]: 84.4 µM
- TGI [43]: > 100 µM
- TGI [59]: > 100 µM
- TGI [44]: > 100 µM
- TGI [45]: > 100 µM
- TGI [46]: > 100 µM
- TGI [47]: > 100 µM
- TGI [48]: > 100 µM
- TGI [49]: > 100 µM
- TGI [50]: > 100 µM
- TGI [51]: 41.9 µM
- TGI [52]: > 100 µM
- TGI [53]: > 100 µM
- TGI [54]: > 100 µM
- TGI [55]: > 100 µM
- TGI [56]: > 100 µM

From PubChem BioAssay (NCI)
